Laboratory results reported in patent US11591365B2, “BCL9 peptides and variants thereof” (WntRx Pharmaceuticals Inc., priority 2017, dated 2023).
Where a SMILES comes first, the peptide text is derived from it. Bridges are numbered along the chain shown (N, C = ends). [ ]: non-standard residue; d: D form. 2Nal = N[C@@H](Cc1ccc2ccccc2c1)C(=O)O; NMeR = CN[C@@H](CCCNC(=N)N)C(=O)O; Ala(cPr) = N[C@@H](CC1CC1)C(=O)O; tBuAla = CC(C)(C)C[C@H](N)C(=O)O; NMeE = CN[C@@H](CCC(=O)O)C(=O)O; NMeQ = CN[C@@H](CCC(N)=O)C(=O)O; Cha = N[C@@H](CC1CCCCC1)C(=O)O; Cba = N[C@@H](CC1CCC1)C(=O)O; S5 = C=CCCC[C@](C)(N)C(=O)O; Ac6c = NC1(C(=O)O)CCCCC1

What was measured:
LEF-TCF-bla HCT116 cells = assay: Wnt reporter assay: Wnt/Beta-Catenin-LEF-TCF-bla HCT116 inhibitor screen, constitutively activated; type: cell-based; conditions: 5 hours incubation with compound
Excerpt: In various embodiments, a polypeptide described herein inhibits binding of BCL9 to β-catenin when assessed in a Wnt transcription assay. In some embodiments, the Wnt transcription assay is a cell-based assay. In some embodiments, the cell-based Wnt transcription assay is a GeneBLAzer® beta-lactamase (bla) reporter assay. Various cell lines, transformed cell lines or primary cells derived from a healthy subject or subject suffering from a disease can be used in this assay. A cell line known to be dependent on canonical Wnt/β-catenin signaling for its survival may also be used. In some embodiments, CellSensor™ LEF/TCF-bla HCT-116 cells are used in this reporter assay. These cells contain a beta-lactamase (BLA) reporter gene under the control of a 0-catenin/LEF/TCF response element stably integrated into HCT-116 cells. As the cells constitutively express beta-lactamase, adding a polypeptide that inhibits binding of BCL9 to β-catenin in this assay leads to reduced production of beta-lactamase. The efficiency of the polypeptide in suppressing Wnt transcription can therefore be quantitatively calculated in this assay. In some embodiments, a polypeptide described herein suppresses the Wnt transcription as measured in a GeneBLAzer® beta-lactamase (bla) reporter assay, which is indicative of the ability of the polypeptide to inhibit binding of BCL9 to β-catenin.
Wnt/Beta-Catenin-LEF-TCF-bla HCT116-Inhibitor Screen, Constitutively Activated. LEF-TCF-bla HCT116 cells are thawed and prepared as described above for the Activator Screen. 32 μL of cell suspension is added to each well of a 384-well Poly-D-Lysine assay plate. Cells in Assay Media are incubated for 16-24 hours in the plate at 37° C./5% CO2 in a humidified incubator. 4 μL of a 10× serial dilution of ICG-001 (control inhibitor starting concentration, 25,000 nM) or compounds are added to appropriate wells of the plate. 4 μL of Assay Media is added to all wells to bring the final assay volume to 40 μL. The plate is incubated for 5 hours at 37° C./5% CO2 in a humidified incubator. 8 μL of 1 μM Substrate Loading Solution is added to each well and the plate is incubated for 2 hours at room temperature. The plate is read on a fluorescence plate reader.

Colo320DM = Colo320DM cell viability; type: cell-based, human
Excerpt: In some embodiments, a polypeptide described herein inhibits binding of BLC9 to β-catenin when assessed in a cell-viability assay. In some embodiments, the cell-viability assay is a CellTiterGlo luminescent assay, wherein the viability of cells is quantitatively measured. Various cell lines, transformed cell lines or primary cells derived from a healthy subject or subject suffering from a disease can be used in this assay.

Row | SMILES | IC50 (LEF-TCF-bla HCT116 cells) [nM] | IC50 (Colo320DM) [nM]
1 | CC[C@H](C)[C@@H]1NC(=O)[C@@](C)(NC(=O)[C@H](CCCNC(=N)N)NC(=O)[C@H](CC(C)C)NC(=O)[C@@H](NC(=O)[C@H](CCC(N)=O)N(C)C(=O)[C@H](CC(C)C)NC(C)=O)[C@@H](C)O)CCCC=CCCC[C@@](C)(C(=O)N[C@@H](CC2CCC2)C(=O)N[C@@H](Cc2ccc3ccccc3c2)C(N)=O)NC(=O)[C@H](CCCNC(=N)N)NC(=O)[C@H](CCC(N)=O)NC1=O [SEQ ID NO: 108, L(N-methylQ)TLRXIQRX(CBA)(2-Nal)] (Ac-L[NMeQ]TLR[S5]IQR[S5][Cba][2Nal]-NH2; staple 6-10) | 3160 | 3100
2 | CC[C@H](C)[C@@H]1NC(=O)[C@@](C)(NC(=O)[C@H](CCCNC(=N)N)NC(=O)[C@H](CC(C)C)NC(=O)[C@@H](NC(=O)[C@H](CCC(N)=O)NC(=O)[C@H](CC(C)C)NC(=O)[C@H](CO)NC(=O)[C@H](CCCNC(=N)N)NC(=O)[C@H](CCC(N)=O)NC(=O)[C@H](CCCNC(=N)N)NC(=O)[C@H](Cc2c[nH]cn2)NC(C)=O)[C@@H](C)O)CCCC=CCCC[C@@](C)(C(=O)N[C@@H](CC2CC2)C(=O)N[C@@H](Cc2ccc3ccccc3c2)C(N)=O)NC(=O)[C@H](CCCNC(=N)N)NC(=O)[C@H](CCC(N)=O)NC1=O [SEQ ID NO: 162, HRQRSLQTLRXIQRX(Cpa)(2-Nal)] (Ac-HRQRSLQTLR[S5]IQR[S5][Ala(cPr)][2Nal]-NH2; staple 11-15) | 7050 | 4190
3 | CC[C@H](C)[C@@H]1NC(=O)[C@@](C)(NC(=O)[C@H](CCCNC(=N)N)NC(=O)[C@H](CC(C)C)NC(=O)[C@@H](NC(=O)[C@H](CCC(N)=O)NC(=O)[C@H](CC(C)C)NC(=O)[C@H](CO)NC(=O)[C@H](CCCNC(=N)N)NC(=O)[C@H](CCC(N)=O)NC(=O)[C@H](CCCNC(=N)N)NC(=O)[C@H](Cc2c[nH]cn2)NC(C)=O)[C@@H](C)O)CCCC=CCCC[C@@](C)(C(=O)NC2(C(=O)N[C@@H](Cc3ccc4ccccc4c3)C(N)=O)CCCCC2)NC(=O)[C@H](CCCNC(=N)N)NC(=O)[C@H](CCC(N)=O)NC1=O [SEQ ID NO: 177, HRQRSLQTLRXIQRX(A6C)(2-Nal)] (Ac-HRQRSLQTLR[S5]IQR[S5][Ac6c][2Nal]-NH2; staple 11-15) | 4450 | 2670
4 | CC[C@H](C)[C@@H]1NC(=O)[C@@](C)(NC(=O)[C@H](CCCNC(=N)N)NC(=O)[C@H](CC(C)C)NC(=O)[C@@H](NC(=O)[C@H](CCC(N)=O)N(C)C(=O)[C@H](CC(C)C)NC(=O)[C@H](CO)NC(=O)[C@H](CCCNC(=N)N)NC(=O)[C@H](CCC(N)=O)N(C)C(=O)[C@H](CCCNC(=N)N)NC(=O)[C@H](Cc2c[nH]cn2)NC(C)=O)[C@@H](C)O)CCCC=CCCC[C@@](C)(C(=O)N[C@@H](CC2CCCCC2)C(=O)N[C@@H](Cc2ccc3ccccc3c2)C(N)=O)NC(=O)[C@H](CCCNC(=N)N)NC(=O)[C@H](CCC(N)=O)NC1=O [SEQ ID NO: 181, HR(N-methylQ)RSL(N-methylQ)TLRXIQRX(Cha)(2-Nal)] (Ac-HR[NMeQ]RSL[NMeQ]TLR[S5]IQR[S5][Cha][2Nal]-NH2; staple 11-15) | 4460 | 1820
5 | CC[C@H](C)[C@@H]1NC(=O)[C@@](C)(NC(=O)[C@H](CCCNC(=N)N)NC(=O)[C@H](CC(C)C)NC(=O)[C@@H](NC(=O)[C@H](CCC(N)=O)N(C)C(=O)[C@H](CC(C)C)NC(=O)[C@H](CO)NC(=O)[C@H](CCCNC(=N)N)NC(=O)[C@H](CCC(=O)O)N(C)C(=O)[C@H](CCCNC(=N)N)NC(=O)[C@H](Cc2c[nH]cn2)NC(C)=O)[C@@H](C)O)CCCC=CCCC[C@@](C)(C(=O)N[C@@H](CC2CCC2)C(=O)N[C@@H](Cc2ccc3ccccc3c2)C(N)=O)NC(=O)[C@H](CCCNC(=N)N)NC(=O)[C@H](CCC(N)=O)NC1=O [SEQ ID NO: 154, HR(N-methylE)RSL(N-methylQ)TLRXIQRX(CBA)(2-Nal)] (Ac-HR[NMeE]RSL[NMeQ]TLR[S5]IQR[S5][Cba][2Nal]-NH2; staple 11-15) | 2260 | 1910
6 | CC[C@H](C)[C@@H]1NC(=O)[C@@](C)(NC(=O)[C@H](CCCNC(=N)N)NC(=O)[C@H](CC(C)C)NC(=O)[C@@H](NC(=O)[C@H](CCC(N)=O)NC(=O)[C@H](CC(C)C)NC(=O)[C@H](CO)NC(=O)[C@H](CCCNC(=N)N)NC(=O)[C@H](CCC(N)=O)NC(=O)[C@H](CCCNC(=N)N)NC(=O)[C@H](Cc2c[nH]cn2)NC(C)=O)[C@@H](C)O)CCCC=CCCC[C@@](C)(C(=O)N[C@@H](CC2CCCCC2)C(=O)N[C@@H](Cc2ccc3ccccc3c2)C(N)=O)NC(=O)[C@H](CCCNC(=N)N)NC(=O)[C@H](CCC(N)=O)NC1=O [SEQ ID NO: 180, HRQRSLQTLRXIQRX(Cha)(2-Nal)] (Ac-HRQRSLQTLR[S5]IQR[S5][Cha][2Nal]-NH2; staple 11-15) | 2210 | 1880
7 | CC[C@H](C)[C@@H]1NC(=O)[C@@](C)(NC(=O)[C@H](CCCNC(=N)N)NC(=O)[C@H](CC(C)C)NC(=O)[C@@H](NC(=O)[C@H](CCC(=O)O)NC(=O)[C@H](CC(C)C)NC(C)=O)[C@@H](C)O)CCCC=CCCC[C@@](C)(C(=O)N[C@@H](CC2CCC2)C(=O)N[C@@H](Cc2ccc3ccccc3c2)C(N)=O)NC(=O)[C@H](CCCNC(=N)N)NC(=O)[C@H](CCC(N)=O)NC1=O [SEQ ID NO: 109, LETLRXIQRX(CBA)(2-Nal)] (Ac-LETLR[S5]IQR[S5][Cba][2Nal]-NH2; staple 6-10) |  | > 5000
8 | CC[C@H](C)[C@@H]1NC(=O)[C@@](C)(NC(=O)[C@H](CCCNC(=N)N)NC(=O)[C@H](CC(C)C)NC(=O)[C@@H](NC(=O)[C@H](CCC(N)=O)NC(=O)[C@H](CC(C)C)NC(=O)[C@H](CO)NC(=O)[C@H](CCCNC(=N)N)NC(=O)[C@H](CCC(N)=O)N(C)C(=O)[C@H](CCCNC(=N)N)NC(=O)[C@H](Cc2c[nH]cn2)NC(C)=O)[C@@H](C)O)CCCC=CCCC[C@@](C)(C(=O)N[C@@H](CC(C)(C)C)C(=O)N[C@@H](Cc2ccc3ccccc3c2)C(N)=O)NC(=O)[C@H](CCCNC(=N)N)NC(=O)[C@H](CCC(N)=O)NC1=O [SEQ ID NO: 193, HR(N-MeGln)RSLQTLRXIQRX(β-tBu-Ala)(2-Nal)] (Ac-HR[NMeQ]RSLQTLR[S5]IQR[S5][tBuAla][2Nal]-NH2; staple 11-15) |  | 2670
9 | CC[C@H](C)[C@@H]1NC(=O)[C@@](C)(NC(=O)[C@H](CCCNC(=N)N)NC(=O)[C@H](CC(C)C)NC(=O)[C@@H](NC(=O)[C@H](CCC(N)=O)NC(=O)[C@H](CC(C)C)NC(=O)[C@H](CO)NC(=O)[C@H](CCCNC(=N)N)NC(=O)[C@H](CCC(=O)O)N(C)C(=O)[C@H](CCCNC(=N)N)NC(=O)[C@H](Cc2c[nH]cn2)NC(C)=O)[C@@H](C)O)CCCC=CCCC[C@@](C)(C(=O)N[C@@H](CC2CCC2)C(=O)N[C@@H](Cc2ccc3ccccc3c2)C(N)=O)NC(=O)[C@H](CCCNC(=N)N)NC(=O)[C@H](CCC(N)=O)NC1=O [SEQ ID NO: 151, HR(N-methylE)RSLQTLRXIQRX(CBA)(2-Nal)] (Ac-HR[NMeE]RSLQTLR[S5]IQR[S5][Cba][2Nal]-NH2; staple 11-15) |  | 3100
10 | CC[C@H](C)[C@@H]1NC(=O)[C@@](C)(NC(=O)[C@H](CCCNC(=N)N)N(C)C(=O)[C@H](CC(C)C)NC(=O)[C@@H](NC(=O)[C@H](CCC(N)=O)NC(=O)[C@H](CC(C)C)NC(=O)[C@H](CO)NC(=O)[C@H](CCCNC(=N)N)NC(=O)[C@H](CCC(=O)O)NC(=O)[C@H](CCCNC(=N)N)NC(=O)[C@H](Cc2c[nH]cn2)NC(C)=O)[C@@H](C)O)CCCC=CCCC[C@@](C)(C(=O)N[C@@H](CC2CCC2)C(=O)N[C@@H](Cc2ccc3ccccc3c2)C(=O)O)NC(=O)[C@H](CCCNC(=N)N)NC(=O)[C@H](CCC(N)=O)NC1=O [SEQ ID NO: 152, HRERSLQTL(N-methylR)XIQRX(CBA)(2-Nal)] (Ac-HRERSLQTL[NMeR][S5]IQR[S5][Cba][2Nal]-OH; staple 11-15) |  | > 5000
11 | CC[C@H](C)[C@@H]1NC(=O)[C@@](C)(NC(=O)[C@H](CCCNC(=N)N)NC(=O)[C@H](CC(C)C)NC(=O)[C@@H](NC(=O)[C@H](CCC(N)=O)N(C)C(=O)[C@H](CC(C)C)NC(=O)[C@H](CO)NC(=O)[C@H](CCCNC(=N)N)NC(=O)[C@H](CCC(N)=O)N(C)C(=O)[C@H](CCCNC(=N)N)NC(=O)[C@H](Cc2c[nH]cn2)NC(C)=O)[C@@H](C)O)CCCC=CCCC[C@@](C)(C(=O)N[C@@H](CC2CCC2)C(=O)N[C@@H](Cc2ccc3ccccc3c2)C(N)=O)NC(=O)[C@H](CCCNC(=N)N)NC(=O)[C@H](CCC(N)=O)NC1=O [SEQ ID NO: 155, HR(N-methylQ)RSL(N-methylQ)TLRXIQRX(CBA)(2-Nal)] (Ac-HR[NMeQ]RSL[NMeQ]TLR[S5]IQR[S5][Cba][2Nal]-NH2; staple 11-15) |  | 2150
